Measured values: publication PMC2862695 (The Journal of organic chemistry, 2009)

Experiments:
panel of 442 kinases = assay: kinase selectivity panel of 442 kinases; type: binding; conditions: 10 μM, 386 nonmutant
MEK1 = MEK1 (Homo sapiens, UniProt Q02750); assay: dissociation constant against MEK1; type: binding; conditions: read-out: Kd MEK1
EGFR = EGFR (Homo sapiens, UniProt P00533); assay: dissociation constant against EGFR; type: binding; conditions: read-out: Kd EGFR
[1] = tested on: iron-mediated neuronal damage; conditions: likely by reduced phosphorylation of hemeoxygenase by ERK; cited from earlier work

Sequence of MEK1 (Q02750 whole entry): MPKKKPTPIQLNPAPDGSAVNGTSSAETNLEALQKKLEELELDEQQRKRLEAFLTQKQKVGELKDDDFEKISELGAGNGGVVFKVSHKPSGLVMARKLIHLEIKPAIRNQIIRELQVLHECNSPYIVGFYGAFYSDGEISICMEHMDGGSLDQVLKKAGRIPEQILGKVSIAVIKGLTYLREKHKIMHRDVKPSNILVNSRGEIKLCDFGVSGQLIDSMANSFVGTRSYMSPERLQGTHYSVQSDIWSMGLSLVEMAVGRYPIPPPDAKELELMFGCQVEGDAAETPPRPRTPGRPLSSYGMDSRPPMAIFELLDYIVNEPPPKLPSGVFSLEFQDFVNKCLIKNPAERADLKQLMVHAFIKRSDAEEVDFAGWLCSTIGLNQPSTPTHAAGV
Sequence of EGFR (P00533 25-1210): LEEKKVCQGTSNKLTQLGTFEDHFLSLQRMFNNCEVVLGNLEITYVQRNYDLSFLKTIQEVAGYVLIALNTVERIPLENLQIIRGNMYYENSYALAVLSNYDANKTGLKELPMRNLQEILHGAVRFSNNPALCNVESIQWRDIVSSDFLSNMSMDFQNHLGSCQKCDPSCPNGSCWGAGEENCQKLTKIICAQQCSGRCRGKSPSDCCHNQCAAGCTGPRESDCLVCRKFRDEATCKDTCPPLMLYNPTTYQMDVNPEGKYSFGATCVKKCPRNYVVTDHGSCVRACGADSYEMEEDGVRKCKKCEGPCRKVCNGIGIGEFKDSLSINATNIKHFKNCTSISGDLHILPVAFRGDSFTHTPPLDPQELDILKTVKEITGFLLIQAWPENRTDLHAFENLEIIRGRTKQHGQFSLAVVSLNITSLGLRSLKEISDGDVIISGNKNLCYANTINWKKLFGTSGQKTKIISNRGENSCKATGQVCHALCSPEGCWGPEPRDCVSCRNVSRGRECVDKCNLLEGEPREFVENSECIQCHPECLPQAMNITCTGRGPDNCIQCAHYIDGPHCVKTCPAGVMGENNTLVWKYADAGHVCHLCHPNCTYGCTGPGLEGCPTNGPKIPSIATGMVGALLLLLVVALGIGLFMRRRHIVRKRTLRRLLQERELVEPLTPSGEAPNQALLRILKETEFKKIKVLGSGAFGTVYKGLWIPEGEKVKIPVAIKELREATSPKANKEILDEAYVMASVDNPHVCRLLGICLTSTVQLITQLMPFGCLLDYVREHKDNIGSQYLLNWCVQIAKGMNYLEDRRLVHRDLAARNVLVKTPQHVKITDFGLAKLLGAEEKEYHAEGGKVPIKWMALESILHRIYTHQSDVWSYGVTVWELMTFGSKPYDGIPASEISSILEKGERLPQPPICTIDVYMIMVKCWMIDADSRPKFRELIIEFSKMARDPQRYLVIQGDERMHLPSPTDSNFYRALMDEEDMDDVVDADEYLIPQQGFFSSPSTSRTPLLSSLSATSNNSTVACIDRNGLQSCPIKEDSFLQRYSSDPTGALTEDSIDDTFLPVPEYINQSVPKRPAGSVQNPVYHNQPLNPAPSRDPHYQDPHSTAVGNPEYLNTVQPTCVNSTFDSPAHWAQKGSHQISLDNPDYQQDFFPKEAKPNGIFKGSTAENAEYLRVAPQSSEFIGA

Nc1[nH]nc2nnc(-c3c(-c4ccccc4)nn4ccccc34)cc12 [FR180204]
number of nonmutant kinases with >90% inhibition of kinase activity (panel of 442 kinases): 29/386
number of nonmutant kinases with >99% inhibition of kinase activity (panel of 442 kinases): 12 out of 386
Kd (MEK1): 8.7 µM
Kd (EGFR): 1.2 µM
effect on iron-mediated neuronal damage caused by hemoglobin breakdown [1]: can reduce iron-mediated neuronal damage
